# Measurements reported in patent US10219516B2, “Molecules having pesticidal utility, and intermediates, compositions, and processes, related thereto” (priority 2015, dated 2019).
# How the values were obtained:
# Assay type in all cases: in vivo
# [1] = system: Beet Armyworm (Spodoptera exigua, LAPHEG); test: Bioassay on Beet Armyworm (BAW), 128-well diet tray assay; settings: Species BAW (Beet Armyworm), read-out: BAW (Biological Results, rating)
# Outline: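 Second-instar larvae, one to five per well, placed on artificial diet surface-treated with 50 μg/cm^2 compound applied in 90:10 acetone-water and dried. Held 5–7 days at 25° C., 14:10 light-dark. Percent mortality recorded per well and averaged over eight wells.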
# [2] = system: Yellow Fever Mosquito (Aedes aegypti, AEDSAE); test: Bioassay on Yellow Fever Mosquito (YFM), 96-well plate larval assay; settings: Species YFM (Yellow Fever Mosquito)
# Outline: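 Compound stocks at 4000 ppm in DMSO were diluted with 90:10 water/acetone, and 15 μL aliquots were dispensed into six replicate plates. About 1-day-old larvae in liver-powder water were added per well. Plates were covered and held at room temperature for 3 days before each well was scored for mortality.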
# [3] = system: Cabbage Looper (Trichoplusia ni, TRIPNI); test: Bioassay on Cabbage Looper (CL), 128-well diet tray assay; settings: Trichoplusia ni; Species CL (Cabbage Looper); read-out: CL (Biological Results, rating)
# Outline: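 Diet-incorporation-free surface assay: 50 μg/cm^2 compound in acetone-water (90:10), dried on diet; 1–5 2nd-instar larvae/well; 8 wells; vented cover; 25° C., 14:10 L:D, 5–7 d; % mortality averaged over wells.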
SMILES,pest or weed control at 50 µg/cm2 [1] [%],"YFM (Biological Results, rating) [2]",pest or weed control at 50 µg/cm2 [3] [%]
"Nc1c(F)ccc(NC(=O)c2cc(NC(=O)[C@H]3[C@H](c4cc(Cl)cc(Br)c4)C3(Cl)Cl)ccc2Cl)c1F (relative stereo) [F339, N-(3-Amino-2,4-difluorophenyl)-5-(trans-3-(3-bromo-5-chlorophenyl)-2,2-dichlorocyclopropane-1-carboxamido)-2-chlorobenzamide]",50 to 100,A (80-100),50 to 100
"N#Cc1cc(F)ccc1NC(=O)c1cc(NC(=O)[C@H]2[C@H](c3cccc(C(F)(F)F)c3)C2(Cl)Cl)ccc1Cl (relative stereo) [F340, trans-2-Chloro-N-(2-cyano-4-fluorophenyl)-5-(2,2-dichloro-3-(3-(trifluoromethyl)phenyl)cyclopropane-1-carboxamido)benzamide]",50 to 100,A (80-100),50 to 100
"Nc1c(F)ccc(NC(=O)c2cc(NC(=O)[C@H]3[C@H](c4cccc(C(F)(F)F)c4)C3(Cl)Cl)ccc2Cl)c1F (relative stereo) [F341, trans-N-(3-Amino-2,4-difluorophenyl)-2-chloro-5-(2,2-dichloro-3-(3-(trifluoromethyl)phenyl)cyclopropane-1-carboxamido)benzamide]",50 to 100,A (80-100),50 to 100
"N#Cc1cc(Cl)cc([C@H]2[C@H](C(=O)Nc3ccc(Cl)c(C(=O)Nc4ncc(F)cc4F)c3)C2(Cl)Cl)c1 (relative stereo) [F342, trans-2-Chloro-5-(2,2-dichloro-3-(3-chloro-5-cyanophenyl)cyclopropane-1-carboxamido)-N-(3,5-difluoropyridin-2-yl)benzamide]",50 to 100,A (80-100),50 to 100
"N#Cc1cc(Cl)cc([C@H]2[C@H](C(=O)Nc3ccc(Cl)c(C(=O)Nc4ccc(F)cc4C#N)c3)C2(Cl)Cl)c1 (relative stereo) [F343, trans-2-Chloro-N-(2-cyano-4-fluorophenyl)-5-(2,2-dichloro-3-(3-chloro-5-cyanophenyl)cyclopropane-1-carboxamido)benzamide]",50 to 100,A (80-100),50 to 100
"N#Cc1cc(Cl)cc([C@H]2[C@H](C(=O)Nc3ccc(Cl)c(C(=O)Nc4ccc(F)c(N)c4F)c3)C2(Cl)Cl)c1 (relative stereo) [F344, trans-N-(3-Amino-2,4-difluorophenyl)-2-chloro-5-(2,2-dichloro-3-(3-chloro-5-cyanophenyl)cyclopropane-1-carboxamido)benzamide]",50 to 100,A (80-100),50 to 100
"Nc1c(F)cnc(NC(=O)c2cc(NC(=O)[C@H]3[C@H](c4cc(Cl)cc(Cl)c4)C3(Cl)Cl)ccc2Cl)c1F (relative stereo) [F345, trans-N-(4-Amino-3,5-difluoropyridin-2-yl)-2-chloro-5-(2,2-dichloro-3-(3,5-dichlorophenyl)cyclopropane-1-carboxamido)benzamide]",50 to 100,A (80-100),50 to 100
"O=C(Nc1ccc(F)cc1F)c1cc(NC(=O)[C@H]2[C@H](c3ccc(F)c(F)c3)C2(Cl)Cl)ccc1Cl (relative stereo) [F346, 2-Chloro-5-(trans)-(2,2-dichloro-3-(3,4-difluorophenyl)cyclopropane-1-carboxamido)-N-(2,4-difluorophenyl)benzamide]",50 to 100,A (80-100),50 to 100
"O=C(Nc1ccc(F)cc1F)c1cc(NC(=O)[C@H]2[C@H](c3ccc(C(F)(F)F)c(F)c3)C2(Cl)Cl)ccc1Cl (relative stereo) [F347, 2-Chloro-5-(trans)-(2,2-dichloro-3-(3-fluoro-4-(trifluoromethyl)phenyl)cyclopropane-1-carboxamido)-N-(2,4-difluorophenyl)benzamide]",50 to 100,A (80-100),50 to 100
"O=C(Nc1ccc(F)cc1[N+](=O)[O-])c1cc(NC(=O)[C@H]2[C@H](c3cc(Cl)cc(Cl)c3)C2(Cl)Cl)ccc1Cl (relative stereo) [F348, trans-2-Chloro-5-(2,2-dichloro-3-(3,5-dichlorophenyl)cyclopropane-1-carboxamido)-N-(4-fluoro-2-nitrophenyl)benzamide]",50 to 100,A (80-100),50 to 100
"C=Cc1cc([C@H]2[C@H](C(=O)Nc3ccc(Cl)c(C(=O)Nc4ccc(F)cc4)c3)C2(Cl)Cl)ccc1Cl (relative stereo) [F349, 2-Chloro-5-(trans-2,2-dichloro-3-(4-chloro-3-vinylphenyl)cyclopropane-1-carboxamido)-N-(4-fluorophenyl)benzamide]",50 to 100,A (80-100),50 to 100
"C=Cc1cc(Cl)cc([C@H]2[C@H](C(=O)Nc3ccc(Cl)c(C(=O)Nc4ccc(F)cc4)c3)C2(Cl)Cl)c1 (relative stereo) [F350, 2-Chloro-5-(trans-2,2-dichloro-3-(3-chloro-5-vinylphenyl)cyclopropane-1-carboxamido)-N-(4-fluorophenyl)benzamide]",50 to 100,A (80-100),50 to 100
"C=Cc1cc([C@H]2[C@H](C(=O)Nc3ccc(Cl)c(C(=O)Nc4ccc(F)cc4F)c3)C2(Cl)Cl)ccc1Cl (relative stereo) [F351, 2-Chloro-5-(trans-2,2-dichloro-3-(4-chloro-3-vinylphenyl)cyclopropane-1-carboxamido)-N-(2,4-difluorophenyl)benzamide]",50 to 100,A (80-100),50 to 100
"C=Cc1cc(Cl)cc([C@H]2[C@H](C(=O)Nc3ccc(Cl)c(C(=O)Nc4ccc(F)cc4F)c3)C2(Cl)Cl)c1 (relative stereo) [F352, 2-Chloro-5-(trans-2,2-dichloro-3-(3-chloro-5-vinylphenyl)cyclopropane-1-carboxamido)-N-(2,4-difluorophenyl)benzamide]",50 to 100,A (80-100),50 to 100
"C=Cc1ccc([C@H]2[C@H](C(=O)Nc3ccc(Cl)c(C(=O)Nc4ccc(F)c(N)c4F)c3)C2(Cl)Cl)cc1Cl (relative stereo) [F355, N-(3-Amino-2,4-difluorophenyl)-2-chloro-5-(trans-2,2-dichloro-3-(3-chloro-4-vinylphenyl)cyclopropane-1-carboxamido)benzamide]",50 to 100,A (80-100),50 to 100
"C=Cc1cc(Cl)cc([C@H]2[C@H](C(=O)Nc3ccc(Cl)c(C(=O)Nc4ccc(F)c(N)c4F)c3)C2(Cl)Cl)c1 (relative stereo) [F356, N-(3-Amino-2,4-difluorophenyl)-2-chloro-5-(trans-2,2-dichloro-3-(3-chloro-5-vinylphenyl)cyclopropane-1-carboxamido)benzamide]",50 to 100,A (80-100),50 to 100
